{"source": "ChEMBL document CHEMBL1201862", "about": "“PubChem BioAssay data set” (2004)", "assay_in_all_cases": "NCI-60 cell line screen, 48 h", "key": {"[1]": {"tested_on": "COLO 205"}, "[2]": {"tested_on": "LOX IMVI"}, "[3]": {"tested_on": "SF-295"}, "[4]": {"tested_on": "SR"}, "[5]": {"tested_on": "SK-OV-3"}, "[6]": {"tested_on": "CCRF-CEM"}, "[7]": {"tested_on": "786-0"}, "[8]": {"tested_on": "U-251"}, "[9]": {"tested_on": "A549"}, "[10]": {"tested_on": "SNB-19"}, "[11]": {"tested_on": "UO-31"}, "[12]": {"tested_on": "OVCAR-8"}, "[13]": {"tested_on": "SF-539"}, "[14]": {"tested_on": "NCI-H226"}, "[15]": {"tested_on": "MDA-MB-231"}, "[16]": {"tested_on": "HCC 2998"}, "[17]": {"tested_on": "EKVX"}, "[18]": {"tested_on": "HOP-92"}, "[19]": {"tested_on": "NCI-H522"}, "[20]": {"tested_on": "SN12C"}, "[21]": {"tested_on": "MDA-N"}, "[22]": {"tested_on": "SF-268"}, "[23]": {"tested_on": "TK-10"}, "[24]": {"tested_on": "Hs-578T"}, "[25]": {"tested_on": "SK-MEL-5"}, "[26]": {"tested_on": "SNB-75"}, "[27]": {"tested_on": "IGROV-1"}, "[28]": {"tested_on": "KM12"}, "[29]": {"tested_on": "HCT-15"}, "[30]": {"tested_on": "MOLT-4"}, "[31]": {"tested_on": "UACC-257"}, "[32]": {"tested_on": "MCF7"}, "[33]": {"tested_on": "HCT-116"}, "[34]": {"tested_on": "OVCAR-4"}, "[35]": {"tested_on": "OVCAR-3"}, "[36]": {"tested_on": "NCI-H23"}, "[37]": {"tested_on": "MDA-MB-435"}, "[38]": {"tested_on": "CAKI-1"}, "[39]": {"tested_on": "UACC-62"}, "[40]": {"tested_on": "DU-145"}, "[41]": {"tested_on": "PC-3"}, "[42]": {"tested_on": "RXF 393"}, "[43]": {"tested_on": "M14"}, "[44]": {"tested_on": "K562"}, "[45]": {"tested_on": "HOP-62"}, "[46]": {"tested_on": "SK-MEL-28"}, "[47]": {"tested_on": "OVCAR-5"}, "[48]": {"tested_on": "ACHN"}, "[49]": {"tested_on": "SW-620"}, "[50]": {"tested_on": "BT-549"}, "[51]": {"tested_on": "HL-60"}, "[52]": {"tested_on": "NCI/ADR-RES"}, "[53]": {"tested_on": "SK-MEL-2"}, "[54]": {"tested_on": "T47D"}, "[55]": {"tested_on": "RPMI-8226"}, "[56]": {"tested_on": "A498"}, "[57]": {"tested_on": "HT-29"}, "[58]": {"tested_on": "NCI-H460"}}, "note": "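The compound was tested at five concentrations on cells cultured in 96-well plates, with a 48-hour exposure period. The concentration for 50% growth inhibition is given as GI50.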 Calls of active or inactive are those of the source. Rule as the data show it: active = GI50 up to about 1.1 µM and inactive = higher."}
{"smiles": "Nc1ncnc2c1ncn2C1OC(CO)CC1O", "note": "(stereo not given)", "values": [{"measurement": "GI50", "setting": "[1]", "result": "93.5 µM (inactive)"}, {"measurement": "GI50", "setting": "[2]", "result": "21.4 µM (inactive)"}, {"measurement": "GI50", "setting": "[3]", "result": "58.7 µM (inactive)"}, {"measurement": "GI50", "setting": "[4]", "result": "> 100 µM (inactive)"}, {"measurement": "GI50", "setting": "[5]", "result": "51.9 µM (inactive)"}, {"measurement": "GI50", "setting": "[6]", "result": "34.3 µM (inactive)"}, {"measurement": "GI50", "setting": "[7]", "result": "17.5 µM (inactive)"}, {"measurement": "GI50", "setting": "[8]", "result": "41.7 µM (inactive)"}, {"measurement": "GI50", "setting": "[9]", "result": "75.7 µM (inactive)"}, {"measurement": "GI50", "setting": "[10]", "result": "26.9 µM (inactive)"}, {"measurement": "GI50", "setting": "[11]", "result": "> 100 µM (inactive)"}, {"measurement": "GI50", "setting": "[12]", "result": "16.6 µM (inactive)"}, {"measurement": "GI50", "setting": "[13]", "result": "34.7 µM (inactive)"}, {"measurement": "GI50", "setting": "[14]", "result": "> 100 µM (inactive)"}, {"measurement": "GI50", "setting": "[15]", "result": "17.9 µM (inactive)"}, {"measurement": "GI50", "setting": "[16]", "result": "19 µM (inactive)"}, {"measurement": "GI50", "setting": "[17]", "result": "40.6 µM (inactive)"}, {"measurement": "GI50", "setting": "[18]", "result": "40.4 µM (inactive)"}, {"measurement": "GI50", "setting": "[19]", "result": "18 µM (inactive)"}, {"measurement": "GI50", "setting": "[20]", "result": "25.6 µM (inactive)"}, {"measurement": "GI50", "setting": "[21]", "result": "38.7 µM (inactive)"}, {"measurement": "GI50", "setting": "[22]", "result": "53.7 µM (inactive)"}, {"measurement": "GI50", "setting": "[23]", "result": "> 100 µM (inactive)"}, {"measurement": "GI50", "setting": "[24]", "result": "25.5 µM (inactive)"}, {"measurement": "GI50", "setting": "[25]", "result": "> 100 µM (inactive)"}, {"measurement": "GI50", "setting": "[26]", "result": "35.2 µM (inactive)"}, {"measurement": "GI50", "setting": "[27]", "result": "> 100 µM (inactive)"}, {"measurement": "GI50", "setting": "[28]", "result": "22 µM (inactive)"}, {"measurement": "GI50", "setting": "[29]", "result": 17.6, "unit": "µM"}, {"measurement": "GI50", "setting": "[30]", "result": "> 100 µM (inactive)"}, {"measurement": "GI50", "setting": "[31]", "result": "> 100 µM (inactive)"}, {"measurement": "GI50", "setting": "[32]", "result": "6.08 µM (inactive)"}, {"measurement": "GI50", "setting": "[33]", "result": "20 µM (inactive)"}, {"measurement": "GI50", "setting": "[34]", "result": "> 100 µM (inactive)"}, {"measurement": "GI50", "setting": "[35]", "result": "39.3 µM (inactive)"}, {"measurement": "GI50", "setting": "[36]", "result": "90.8 µM (inactive)"}, {"measurement": "GI50", "setting": "[37]", "result": "> 10 µM (inactive)"}, {"measurement": "GI50", "setting": "[38]", "result": "> 100 µM (inactive)"}, {"measurement": "GI50", "setting": "[39]", "result": "36.6 µM (inactive)"}, {"measurement": "GI50", "setting": "[40]", "result": "30.1 µM (inactive)"}, {"measurement": "GI50", "setting": "[41]", "result": "9.27 µM (inactive)"}, {"measurement": "GI50", "setting": "[42]", "result": "> 100 µM (inactive)"}, {"measurement": "GI50", "setting": "[43]", "result": "38.2 µM (inactive)"}, {"measurement": "GI50", "setting": "[44]", "result": "7.93 µM (inactive)"}, {"measurement": "GI50", "setting": "[45]", "result": "29.3 µM (inactive)"}, {"measurement": "GI50", "setting": "[46]", "result": "25.6 µM (inactive)"}, {"measurement": "GI50", "setting": "[47]", "result": "> 100 µM (inactive)"}, {"measurement": "GI50", "setting": "[48]", "result": "> 100 µM (inactive)"}, {"measurement": "GI50", "setting": "[49]", "result": "35.1 µM (inactive)"}, {"measurement": "GI50", "setting": "[50]", "result": "29.9 µM (inactive)"}, {"measurement": "GI50", "setting": "[51]", "result": "> 10 µM (inactive)"}, {"measurement": "GI50", "setting": "[52]", "result": "20.3 µM (inactive)"}]}
{"smiles": "Cn1nc(-c2ccc(S(=O)(=O)N/C(=N/c3ccc(Cl)cc3)NN)s2)cc1C(F)(F)F", "values": [{"measurement": "GI50", "setting": "[1]", "result": "17.1 µM (inactive)"}, {"measurement": "GI50", "setting": "[2]", "result": "18.3 µM (inactive)"}, {"measurement": "GI50", "setting": "[53]", "result": "19.2 µM (inactive)"}, {"measurement": "GI50", "setting": "[3]", "result": "16.2 µM (inactive)"}, {"measurement": "GI50", "setting": "[4]", "result": "17.4 µM (inactive)"}, {"measurement": "GI50", "setting": "[5]", "result": "20.9 µM (inactive)"}, {"measurement": "GI50", "setting": "[7]", "result": "14.9 µM (inactive)"}, {"measurement": "GI50", "setting": "[8]", "result": "14.6 µM (inactive)"}, {"measurement": "GI50", "setting": "[9]", "result": "15 µM (inactive)"}, {"measurement": "GI50", "setting": "[10]", "result": "16.5 µM (inactive)"}, {"measurement": "GI50", "setting": "[11]", "result": "14.6 µM (inactive)"}, {"measurement": "GI50", "setting": "[12]", "result": "19.6 µM (inactive)"}, {"measurement": "GI50", "setting": "[54]", "result": "13.3 µM (inactive)"}, {"measurement": "GI50", "setting": "[13]", "result": "13.5 µM (inactive)"}, {"measurement": "GI50", "setting": "[14]", "result": "13.4 µM (inactive)"}, {"measurement": "GI50", "setting": "[15]", "result": "16.8 µM (inactive)"}, {"measurement": "GI50", "setting": "[17]", "result": "14.8 µM (inactive)"}, {"measurement": "GI50", "setting": "[55]", "result": "21.3 µM (inactive)"}, {"measurement": "GI50", "setting": "[18]", "result": "20.4 µM (inactive)"}, {"measurement": "GI50", "setting": "[20]", "result": "15.3 µM (inactive)"}, {"measurement": "GI50", "setting": "[21]", "result": "14.2 µM (inactive)"}, {"measurement": "GI50", "setting": "[22]", "result": "17.7 µM (inactive)"}, {"measurement": "GI50", "setting": "[23]", "result": "19.1 µM (inactive)"}, {"measurement": "GI50", "setting": "[25]", "result": "18.2 µM (inactive)"}, {"measurement": "GI50", "setting": "[26]", "result": "16.3 µM (inactive)"}, {"measurement": "GI50", "setting": "[27]", "result": "19.3 µM (inactive)"}, {"measurement": "GI50", "setting": "[28]", "result": "16.6 µM (inactive)"}, {"measurement": "GI50", "setting": "[29]", "result": 21.8, "unit": "µM"}, {"measurement": "GI50", "setting": "[56]", "result": "16.4 µM (inactive)"}, {"measurement": "GI50", "setting": "[30]", "result": "4.06 µM (inactive)"}, {"measurement": "GI50", "setting": "[31]", "result": "19.5 µM (inactive)"}, {"measurement": "GI50", "setting": "[32]", "result": "21 µM (inactive)"}, {"measurement": "GI50", "setting": "[33]", "result": "14.9 µM (inactive)"}, {"measurement": "GI50", "setting": "[34]", "result": "15.9 µM (inactive)"}, {"measurement": "GI50", "setting": "[57]", "result": "16.2 µM (inactive)"}, {"measurement": "GI50", "setting": "[35]", "result": "19.7 µM (inactive)"}, {"measurement": "GI50", "setting": "[36]", "result": "20.3 µM (inactive)"}, {"measurement": "GI50", "setting": "[38]", "result": "18.7 µM (inactive)"}, {"measurement": "GI50", "setting": "[39]", "result": "16.9 µM (inactive)"}, {"measurement": "GI50", "setting": "[40]", "result": "17.1 µM (inactive)"}, {"measurement": "GI50", "setting": "[41]", "result": "16.9 µM (inactive)"}, {"measurement": "GI50", "setting": "[42]", "result": "11.1 µM (inactive)"}, {"measurement": "GI50", "setting": "[43]", "result": "17.5 µM (inactive)"}, {"measurement": "GI50", "setting": "[44]", "result": "14.1 µM (inactive)"}, {"measurement": "GI50", "setting": "[45]", "result": "16.5 µM (inactive)"}, {"measurement": "GI50", "setting": "[46]", "result": "18.3 µM (inactive)"}, {"measurement": "GI50", "setting": "[58]", "result": "19.9 µM (inactive)"}, {"measurement": "GI50", "setting": "[47]", "result": "15.9 µM (inactive)"}, {"measurement": "GI50", "setting": "[48]", "result": "18.4 µM (inactive)"}, {"measurement": "GI50", "setting": "[49]", "result": "18.4 µM (inactive)"}, {"measurement": "GI50", "setting": "[50]", "result": "17.8 µM (inactive)"}, {"measurement": "GI50", "setting": "[51]", "result": "< 0.01 µM (active)"}, {"measurement": "GI50", "setting": "[52]", "result": "21.8 µM (inactive)"}]}
